# Assay results from US10927123B2, “Modulators of the beta-3 adrenergic receptor useful for the treatment or prevention of disorders related thereto” (Arena Pharmaceuticals, Inc., priority 2016, dated 2021).
# Molecular target: Beta-3 Adrenergic Receptor (Homo sapiens (Human), UniProt P13945)
# Experiment: HTRF cAMP antagonist assay (IC50 determination)
# Assay type: cell-based
# Settings: CHO-K1 cells stably expressing recombinant receptor; antagonism of isoproterenol at EC90; cAMP readout
# Outline: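 CHO-K1 cells stably expressing receptor, 1500 cells/well, preincubated briefly with 10-point 5-fold compound series (top final typically 10 or 100 μM) in PBS with 1 mM IBMX, then challenged with isoproterenol at EC90 for 1 h at room temperature. cAMP read by HTRF against on-plate standard curve; IC50 from dose-response.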
# Beta-3 Adrenergic Receptor, sequence (P13945 whole entry, species assumed): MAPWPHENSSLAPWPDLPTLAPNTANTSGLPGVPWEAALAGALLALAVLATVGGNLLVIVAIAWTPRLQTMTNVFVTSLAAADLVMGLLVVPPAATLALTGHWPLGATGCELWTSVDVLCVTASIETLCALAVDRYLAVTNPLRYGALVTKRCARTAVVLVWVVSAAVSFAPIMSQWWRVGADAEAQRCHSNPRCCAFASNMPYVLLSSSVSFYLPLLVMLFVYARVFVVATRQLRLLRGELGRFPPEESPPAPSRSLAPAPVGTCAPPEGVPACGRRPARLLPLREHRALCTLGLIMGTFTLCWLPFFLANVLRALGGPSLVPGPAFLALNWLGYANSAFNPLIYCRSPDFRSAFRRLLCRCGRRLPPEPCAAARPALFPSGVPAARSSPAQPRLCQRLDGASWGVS
row,IC50,Structure (SMILES)
1,0.0388 µM,"CCS(=O)(=O)c1cccc(OC[C@@H](O)CN[C@@H]2COC3(CCN(S(=O)(=O)c4ccc(OC)c(-c5ccc(C6(N)CC6)cc5)c4)CC3)C2)c1 [Compound 261, (S)-1-((S)-8-(4′-(1-aminocyclopropyl)-6-methoxybiphenyl-3-ylsulfonyl)-1-oxa-8-azaspiro[4.5]decan-3-ylamino)-3-(3-(ethylsulfonyl)phenoxy)propan-2-ol]"
2,0.982 µM,"CC(C)(C)NCc1ccc(-c2cccc(S(=O)(=O)N3CCC4(CC3)C[C@@H](NC[C@H](O)COc3cccc(S(=O)(=O)C5(CO)CC5)c3)CO4)c2)cc1 [Compound 262, (S)-1-((R)-8-(4′-((tert-butylamino)methyl)biphenyl-3-ylsulfonyl)-1-oxa-8-azaspiro[4.5]decan-3-ylamino)-3-(3-(1-(hydroxymethyl)cyclopropylsulfonyl)phenoxy)propan-2-ol]"
3,0.755 µM,"CCC(C)(C)NCc1ccc(-c2cccc(S(=O)(=O)N3CCC4(CC3)C[C@@H](NC[C@H](O)COc3cccc(S(=O)(=O)C5(CO)CC5)c3)CO4)c2)cc1 [Compound 263, (S)-1-(3-(1-(hydroxymethyl)cyclopropylsulfonyl)phenoxy)-3-((R)-8-(4′-((tert-pentylamino)methyl)biphenyl-3-ylsulfonyl)-1-oxa-8-azaspiro[4.5]decan-3-ylamino)propan-2-ol]"
4,0.98 µM,"O=S(=O)(c1cccc(-c2ccc(CNCC(F)(F)F)cc2)c1)N1CCC2(CC1)C[C@@H](NC[C@H](O)COc1cccc(S(=O)(=O)C3(CO)CC3)c1)CO2 [Compound 264, (S)-1-(3-(1-(hydroxymethyl)cyclopropylsulfonyl)phenoxy)-3-((R)-8-(4′-((2,2,2-trifluoroethylamino)methyl)biphenyl-3-ylsulfonyl)-1-oxa-8-azaspiro[4.5]decan-3-ylamino)propan-2-ol]"
5,0.374 µM,"O=S(=O)(c1cccc(-c2ccc(CN3CCC3)cc2)c1)N1CCC2(CC1)C[C@@H](NC[C@H](O)COc1cccc(S(=O)(=O)C3(CO)CC3)c1)CO2 [Compound 265, (S)-1-((R)-8-(4′-(azetidin-1-ylmethyl)biphenyl-3-ylsulfonyl)-1-oxa-8-azaspiro[4.5]decan-3-ylamino)-3-(3-(1-(hydroxymethyl)cyclopropylsulfonyl)phenoxy)propan-2-ol]"
6,1.29 µM,"O=S(=O)(c1cccc(-c2ccc(CN3CCOCC3)cc2)c1)N1CCC2(CC1)C[C@@H](NC[C@H](O)COc1cccc(S(=O)(=O)C3(CO)CC3)c1)CO2 [Compound 266, (S)-1-(3-(1-(hydroxymethyl)cyclopropylsulfonyl)phenoxy)-3-((R)-8-(4′-(morpholinomethyl)biphenyl-3-ylsulfonyl)-1-oxa-8-azaspiro[4.5]decan-3-ylamino)propan-2-ol]"
7,0.442 µM,"COCCNCc1ccc(-c2cccc(S(=O)(=O)N3CCC4(CC3)C[C@@H](NC[C@H](O)COc3cccc(S(=O)(=O)C5(CO)CC5)c3)CO4)c2)cc1 [Compound 267, (S)-1-(3-(1-(hydroxymethyl)cyclopropylsulfonyl)phenoxy)-3-((R)-8-(4′-((2-methoxyethylamino)methyl)biphenyl-3-ylsulfonyl)-1-oxa-8-azaspiro[4.5]decan-3-ylamino)propan-2-ol]"
8,0.138 µM,"CCNCc1ccc(-c2cccc(S(=O)(=O)N3CCC4(CC3)C[C@@H](NC[C@H](O)COc3cccc(S(=O)(=O)C5(CO)CC5)c3)CO4)c2)cc1 [Compound 268, (S)-1-((R)-8-(4′-((ethylamino)methyl)biphenyl-3-ylsulfonyl)-1-oxa-8-azaspiro[4.5]decan-3-ylamino)-3-(3-(1-(hydroxymethyl)cyclopropylsulfonyl)phenoxy)propan-2-ol]"
9,0.4 µM,"O=S(=O)(c1cccc(-c2ccc(CNC3CCC3)cc2)c1)N1CCC2(CC1)C[C@@H](NC[C@H](O)COc1cccc(S(=O)(=O)C3(CO)CC3)c1)CO2 [Compound 269, (S)-1-((R)-8-(4′-((cyclobutylamino)methyl)biphenyl-3-ylsulfonyl)-1-oxa-8-azaspiro[4.5]decan-3-ylamino)-3-(3-(1-(hydroxymethyl)cyclopropylsulfonyl)phenoxy)propan-2-ol]"
10,0.0923 µM,"NCCNCc1ccc(-c2cccc(S(=O)(=O)N3CCC4(CC3)C[C@@H](NC[C@H](O)COc3cccc(S(=O)(=O)C5(CO)CC5)c3)CO4)c2)cc1 [Compound 270, (S)-1-((R)-8-(4′-((2-aminoethylamino)methyl)biphenyl-3-ylsulfonyl)-1-oxa-8-azaspiro[4.5]decan-3-ylamino)-3-(3-(1-(hydroxymethyl)cyclopropylsulfonyl)phenoxy)propan-2-ol]"
11,0.206 µM,"NCCCNCc1ccc(-c2cccc(S(=O)(=O)N3CCC4(CC3)C[C@@H](NC[C@H](O)COc3cccc(S(=O)(=O)C5(CO)CC5)c3)CO4)c2)cc1 [Compound 271, (S)-1-((R)-8-(4′-((3-aminopropylamino)methyl)biphenyl-3-ylsulfonyl)-1-oxa-8-azaspiro[4.5]decan-3-ylamino)-3-(3-(1-(hydroxymethyl)cyclopropylsulfonyl)phenoxy)propan-2-ol]"
12,0.566 µM,"CC(C)CNCc1ccc(-c2cccc(S(=O)(=O)N3CCC4(CC3)C[C@@H](NC[C@H](O)COc3cccc(S(=O)(=O)C5(CO)CC5)c3)CO4)c2)cc1 [Compound 272, (S)-1-(3-(1-(hydroxymethyl)cyclopropylsulfonyl)phenoxy)-3-((R)-8-(4′-((isobutylamino)methyl)biphenyl-3-ylsulfonyl)-1-oxa-8-azaspiro[4.5]decan-3-ylamino)propan-2-ol]"
13,0.0384 µM,"C[C@H]1CN(C)c2cc(S(=O)(=O)N3CCC4(CC3)C[C@@H](NC[C@H](O)COc3cccc(S(=O)(=O)C5CC5)c3)CO4)cnc2O1 [Compound 274, (S)-1-(3-(cyclopropylsulfonyl)phenoxy)-3-((R)-8-((S)-1,3-dimethyl-2,3-dihydro-1H-pyrido[2,3-b][1,4]oxazin-7-ylsulfonyl)-1-oxa-8-azaspiro[4.5]decan-3-ylamino)propan-2-ol]"
14,0.0623 µM,"Cc1c(S(=O)(=O)N2CCC3(CC2)C[C@@H](NC[C@H](O)COc2cccc(S(=O)(=O)C4CC4)c2)CO3)cnc2c1N(C)CCO2 [Compound 275, (S)-1-(3-(cyclopropylsulfonyl)phenoxy)-3-((R)-8-(1,8-dimethyl-2,3-dihydro-1H-pyrido[2,3-b][1,4]oxazin-7-ylsulfonyl)-1-oxa-8-azaspiro[4.5]decan-3-ylamino)propan-2-ol]"
15,1.81 µM,"Cc1c(S(=O)(=O)N2CCC3(CC2)C[C@@H](NC[C@H](O)COc2cccc(S(=O)(=O)CC(N)=O)c2)CO3)cnc2c1N(C)CCO2 [Compound 276, 2-(3-((S)-3-((R)-8-(1,8-dimethyl-2,3-dihydro-1H-pyrido[2,3-b][1,4]oxazin-7-ylsulfonyl)-1-oxa-8-azaspiro[4.5]decan-3-ylamino)-2-hydroxypropoxy)phenylsulfonyl)acetamide]"
16,0.0165 µM,"C[C@H]1CN(C)c2cc(S(=O)(=O)N3CCC4(CC3)C[C@H](NC[C@H](O)COc3cccc(S(=O)(=O)C5CC5)c3)CO4)cnc2O1 [Compound 277, (S)-1-(3-(cyclopropylsulfonyl)phenoxy)-3-((S)-8-((S)-1,3-dimethyl-2,3-dihydro-1H-pyrido[2,3-b][1,4]oxazin-7-ylsulfonyl)-1-oxa-8-azaspiro[4.5]decan-3-ylamino)propan-2-ol]"
17,0.586 µM,"C[C@H]1CN(C)c2cc(S(=O)(=O)N3CCC4(CC3)C[C@@H](NC[C@H](O)COc3cccc(S(=O)(=O)CC(N)=O)c3)CO4)cnc2O1 [Compound 278, 2-(3-((S)-3-((R)-8-((S)-1,3-dimethyl-2,3-dihydro-1H-pyrido[2,3-b][1,4]oxazin-7-ylsulfonyl)-1-oxa-8-azaspiro[4.5]decan-3-ylamino)-2-hydroxypropoxy)phenylsulfonyl)acetamide]"
18,0.0397 µM,"Cn1cnc2cc(S(=O)(=O)N3CCC4(CC3)C[C@@H](NC[C@H](O)COc3cccc(S(=O)(=O)C5CC5)c3)CO4)cnc21 [Compound 279, (S)-1-(3-(cyclopropylsulfonyl)phenoxy)-3-((R)-8-(3-methyl-3H-imidazo[4,5-b]pyridin-6-ylsulfonyl)-1-oxa-8-azaspiro[4.5]decan-3-ylamino)propan-2-ol]"
19,0.0964 µM,"O=C1NCc2ncc(S(=O)(=O)N3CCC4(CC3)C[C@@H](NC[C@H](O)COc3cccc(S(=O)(=O)C5CC5)c3)CO4)cc21 [Compound 280, 3-((R)-3-((S)-3-(3-(cyclopropylsulfonyl)phenoxy)-2-hydroxypropylamino)-1-oxa-8-azaspiro[4.5]decan-8-ylsulfonyl)-6,7-dihydro-5H-pyrrolo[3,4-b]pyridin-5-one]"
20,0.0579 µM,"O=c1[nH]c2cc(S(=O)(=O)N3CCC4(CC3)C[C@@H](NC[C@H](O)COc3cccc(S(=O)(=O)C5CC5)c3)CO4)cnc2[nH]1 [Compound 281, 6-((R)-3-((S)-3-(3-(cyclopropylsulfonyl)phenoxy)-2-hydroxypropylamino)-1-oxa-8-azaspiro[4.5]decan-8-ylsulfonyl)-1H-imidazo[4,5-b]pyridin-2(3H)-one]"
21,0.0237 µM,"O=S(=O)(c1cccc(OC[C@@H](O)CN[C@H]2COC3(CCN(S(=O)(=O)c4cnc5c(c4)CCCC5)CC3)C2)c1)C1CC1 [Compound 282, (S)-1-(3-(cyclopropylsulfonyl)phenoxy)-3-((R)-8-(5,6,7,8-tetrahydroquinolin-3-ylsulfonyl)-1-oxa-8-azaspiro[4.5]decan-3-ylamino)propan-2-ol]"
22,0.0689 µM,"C[C@@H]1CN(C)c2cc(S(=O)(=O)N3CCC4(CC3)C[C@@H](NC[C@H](O)COc3cccc(S(=O)(=O)C5(CO)CC5)c3)CO4)cnc2O1 [Compound 283, (S)-1-((R)-8-((R)-1,3-dimethyl-2,3-dihydro-1H-pyrido[2,3-b][1,4]oxazin-7-ylsulfonyl)-1-oxa-8-azaspiro[4.5]decan-3-ylamino)-3-(3-(1-(hydroxymethyl)cyclopropylsulfonyl)phenoxy)propan-2-ol]"
